TGI and GI50 data for twelve compounds are collected here from PubChem BioAssay (NCI).

Some test systems named below: M14 melanoma; 786-0 renal; SR leukemia; SW-620 colon; SNB-19 CNS; COLO 205 colon; SK-OV-3 ovarian; U251 CNS; MCF7 breast; MDA-MB-435.
Holding throughout (assay): inhibition of tumour cell growth, NCI panel, 48 h

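48-hour exposure; five concentrations; linearly interpolated endpoints. Abbreviation: GI50, concentration required for 50% inhibition of growth. TGI is the concentration that stops growth completely.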

As to `COc1ccc2cccc(C(=O)c3ccc(C)c4c3CCC4)c2c1`, the TGI in the test on M14 melanoma was 57.6 µM; in the test on 786-0 renal, 77.7 µM; with SR leukemia, 85.3 µM; in the test with SW-620 colon, greater than 100 µM; with SNB-19 CNS, greater than 100 µM; in the test on COLO 205 colon it was 68.3 µM. The TGI in the test on SK-OV-3 ovarian and in the test on U251 CNS was greater than 100 µM each time.
For `Cc1nc(C)c(C(=O)Nc2cccc3c2C(=O)NC3=O)cc1C(=O)Nc1cccc2c1C(=O)NC2=O`, the TGI in the test on M14 melanoma, in the test on 786-0 renal, in the test with SR leukemia, in the test on SW-620 colon, in the test on SNB-19 CNS and with COLO 205 colon was greater than 100 µM each time. The TGI with SK-OV-3 ovarian and in the test with U251 CNS was greater than 100 µM each time.
With `CN1CCn2c(Br)ccc2C1=O`, the TGI with M14 melanoma, with 786-0 renal, with SR leukemia, with SW-620 colon, with SNB-19 CNS and in the test with COLO 205 colon was greater than 100 µM each time. The TGI in the test on U251 CNS is greater than 100 µM.
Regarding `CCCCc1c2c(nc3c1CCc1cc4c(nc1-3)-c1nc3c(c(CCCC)c1CC4)CCC/C3=C\c1ccccc1)/C(=C/c1ccccc1)CCC2`, the TGI with M14 melanoma, with 786-0 renal, in the test with SR leukemia, in the test with SW-620 colon, in the test with SNB-19 CNS and in the test on COLO 205 colon was greater than 100 µM throughout. Also, the TGI in the test with SK-OV-3 ovarian and with U251 CNS was greater than 100 µM throughout.
Regarding `CCC1C(C)c2c([nH]c3ccccc23)C2C(=O)N(c3ccccc3)C(=O)C21` (stereo not given), the TGI in the test on M14 melanoma stood at 33.4 µM; in the test on 786-0 renal it was 34.5 µM; in the test on SR leukemia, 47.3 µM; in the test with SW-620 colon it was 35.9 µM; in the test on COLO 205 colon, 30.7 µM; in the test on SK-OV-3 ovarian, 44.1 µM. The compound also returned a TGI in the test with U251 CNS of 29.3 µM.
As to `c1ccc2c(CNCCCCCCNCc3cccc4ccccc34)cccc2c1`, the TGI in the test on M14 melanoma is 3.25 µM; with 786-0 renal, 26.1 µM; in the test with SR leukemia, 4.47 µM; with SW-620 colon, 14.1 µM; in the test on COLO 205 colon, 3.12 µM; in the test with SK-OV-3 ovarian, 31.5 µM. Also, in the test with U251 CNS, the TGI is 22.8 µM.
On to `CC(C)[C@@H]1C=C(c2ccccc2)c2ccccc2C1C(C#N)(C#N)C(C)C` (stereo not given in full), for which the TGI with M14 melanoma, in the test on 786-0 renal, in the test with SR leukemia, in the test with SW-620 colon, with SNB-19 CNS and with COLO 205 colon was greater than 100 µM each time. Moreover, the TGI in the test on SK-OV-3 ovarian and with U251 CNS was greater than 100 µM each time.
For `CCCCCCCCCCCC(=O)OCC1OC(n2cc(F)c(=O)[nH]c2=O)C(NC(=O)OCc2ccccc2)C(O)C1O` (stereo not given), the TGI in the test on M14 melanoma was 36.2 µM; in the test with 786-0 renal it was 50.9 µM; in the test on SR leukemia it was 41.2 µM; in the test on SW-620 colon, 41.5 µM; with SNB-19 CNS, 75.5 µM; with COLO 205 colon, 39.7 µM. For the same compound, the figures for the TGI in the test with SK-OV-3 ovarian and with U251 CNS were greater than 100 µM and 38.9 µM, respectively.
`COC(=O)C1=C(OC)c2cc3c(cc2C(c2cc(OC)c(OC)c(OC)c2)C1C(=O)OC)OCO3` (stereo not given): the TGI with M14 melanoma, in the test on 786-0 renal, in the test on SR leukemia, with SW-620 colon, in the test with COLO 205 colon and in the test with SK-OV-3 ovarian was greater than 100 µM in each case. The TGI in the test on U251 CNS is greater than 100 µM.
For the compound `COc1ccc(/C(C)=C(\c2ccc(Cl)cc2)c2ccc(OCCN3CCCC3)cc2)cc1`, the GI50 in the test on M14 melanoma is 0.752 µM; in the test on 786-0 renal, 2.43 µM; in the test with SW-620 colon it was 3.04 µM; in the test with SNB-19 CNS it was 4.54 µM; in the test on COLO 205 colon it was 3.57 µM; with MCF7 breast, 0.887 µM. The results for the GI50 in the test with SK-OV-3 ovarian, in the test on MDA-MB-435 and in the test on U251 CNS were 6.03 µM, 1.84 µM and 3.9 µM, respectively. Also, the TGI in the test with M14 melanoma worked out at 1.95 µM; with 786-0 renal, 6.85 µM; with SW-620 colon it was 7.33 µM; in the test with SNB-19 CNS it was 9.09 µM; in the test with COLO 205 colon, 7.74 µM; in the test with MCF7 breast, 5.83 µM. Besides, the TGI with SK-OV-3 ovarian was 10.7 µM; in the test with MDA-MB-435 it was 6.14 µM; in the test with U251 CNS, 8.3 µM.
With `COC(=O)/C=C/C(=O)C1C(C(=O)OC)C2(C(=O)OC)CCC1(C(=O)OC)N2` (stereo not given), the TGI in the test with M14 melanoma, with 786-0 renal, in the test with SR leukemia, in the test on SNB-19 CNS, in the test on COLO 205 colon and in the test with SK-OV-3 ovarian was greater than 100 µM in each case. Moreover, the TGI in the test on U251 CNS was greater than 100 µM.
For the compound `CC1(O)C=CC2CCC1C2O` (stereo not given), the TGI with M14 melanoma was greater than 100 µM; in the test on 786-0 renal it was 75.5 µM; in the test with SR leukemia, 50.2 µM; in the test on SNB-19 CNS, greater than 100 µM; in the test with COLO 205 colon, 75.7 µM; in the test with SK-OV-3 ovarian, greater than 100 µM. The TGI in the test with U251 CNS is greater than 100 µM.
